Experimental data published in patent publication US20060069132A1, “Azolecarboxamide herbicides” (priority 2004, published 2006).
Where two headings read alike, the source gives them in different places.

Columns and labels:
barnyardgrass = test: Test C flooded paddy test; format: in vivo, Echinochloa crus-galli; settings: Echinochloa crus-galli; for pest or weed control at 62 g/ha: 62 g ai/ha; for pest or weed control at 125 g/ha: 125 g ai/ha; for pest or weed control at 250 g/ha: 250 g ai/ha; for pest or weed control at 500 g/ha: 500 g ai/ha
In short: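 Visual rating, 0 (no effect) to 100 (complete control), vs. controls at 12–14 d in greenhouse. Postemergence: 1–4-leaf plants, 2–18 cm. Paddy: flooded, barnyardgrass at 2-leaf stage.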

redroot pigweed = test: Test A pre-/postemergence herbicide test; format: in vivo, Amaranthus retroflexus; settings: Amaranthus retroflexus, 240 h; for pest or weed control at 500 g/ha: 500 g ai/ha; for pest or weed control at 2000 g/ha: 2000 g ai/ha
In short: (§1)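 Visual injury rating on a 0–100 scale (0 no effect, 100 complete control) versus untreated controls, about ten days after treatment in greenhouse. Pre: directed soil spray onto seeded sandy loam. Post: spray to runoff on plants 2–10 cm tall at one- to two-leaf stage.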

large crabgrass = test: Test A pre-/postemergence herbicide test; format: in vivo, Digitaria sanguinalis; settings: Digitaria sanguinalis, 240 h; for pest or weed control at 500 g/ha: 500 g ai/ha; for pest or weed control at 2000 g/ha: 2000 g ai/ha
In short: as §1

rice [1] = test: Test C flooded paddy test; format: in vivo, Oryza sativa; settings: Oryza sativa; for plant injury at 62 g/ha: 62 g ai/ha; for plant injury at 125 g/ha: 125 g ai/ha; for plant injury at 250 g/ha: 250 g ai/ha; for plant injury at 500 g/ha: 500 g ai/ha
In short: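 Injury scored visually against controls on a 0 (no effect) to 100 (complete control) scale, 12 to 14 days after treatment in greenhouse. Flooded paddy plants treated at 2-leaf stage; postemergence plants at 1- to 4-leaf stage, 2 to 18 cm tall.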

pigweed = test: Test C pre-/postemergence herbicide test; format: in vivo, Amaranthus retroflexus; settings: for Plant response rating (0 = no effect, 100 = complete control), Pigweed: 62 g ai/ha, preemergence; for pest or weed control at 250 g/ha: 250 g ai/ha, scale 0 to 100 (0 no effect, 100 complete control); for Pigweed plant response rating: Preemergence, 500 g ai/ha, scale 0 to 100, 0 no effect, 100 complete control
In short: (§2)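 Pre- and postemergence application, solvent/surfactant formulation; post at 1- to 4-leaf stage (2–18 cm). Greenhouse 12–14 d. Visual rating vs controls, 0 = no effect, 100 = complete control.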

lambsquarters = test: Test C pre-/postemergence herbicide test; format: in vivo, Chenopodium album; settings: for Plant response rating (0 = no effect, 100 = complete control), Lambsquarters: 62 g ai/ha, preemergence; for pest or weed control at 125 g/ha / pest or weed control at 250 g/ha: Chenopodium album, pre-emergence, read-out: Plant response rating, Lambsquarters; for pest or weed control at 125 g/ha: 125 g ai/ha; for pest or weed control at 250 g/ha: 250 g ai/ha, scale 0 to 100 (0 no effect, 100 complete control); for Lambsquarters plant response rating: Preemergence, 500 g ai/ha, scale 0 to 100, 0 no effect, 100 complete control
In short: as §2

rice [2] = test: Test B pre-/postemergence herbicide test; format: in vivo, Oryza sativa; settings: for Rice plant response rating: Preemergence, 500 g ai/ha, scale 0 to 100
In short: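 Formulation: non-phytotoxic solvent mix with surfactant. Timing: preemergence on seed and postemergence on 2–18 cm plants, applied concurrently. Readout after 13–15 d greenhouse: visual 0–100 control rating against controls.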

goosegrass = test: Test C pre-/postemergence herbicide test; format: in vivo, Eleusine indica; settings: for Plant response rating (0 = no effect, 100 = complete control), Goosegrass: 62 g ai/ha, preemergence; for pest or weed control at 125 g/ha / pest or weed control at 250 g/ha: Eleusine indica, pre-emergence, 312 h, read-out: Plant response rating, Goosegrass; for pest or weed control at 125 g/ha: 125 g ai/ha; for pest or weed control at 250 g/ha: 250 g ai/ha, scale 0 to 100 (0 no effect, 100 complete control); for Goosegrass plant response rating: Preemergence, 500 g ai/ha, scale 0 to 100, 0 no effect, 100 complete control
In short: as §2

giant foxtail = test: Test C pre-/postemergence herbicide test; format: in vivo, Setaria faberi; settings: for Plant response rating (0 = no effect, 100 = complete control), Foxtail, Giant: 62 g ai/ha, preemergence; for Foxtail, Giant plant response rating: Preemergence, 500 g ai/ha, scale 0 to 100, 0 no effect, 100 complete control; for pest or weed control at 125 g/ha / pest or weed control at 250 g/ha: Setaria faberi, pre-emergence, 312 h, read-out: Plant response rating, Foxtail, Giant; for pest or weed control at 125 g/ha: 125 g ai/ha; for pest or weed control at 250 g/ha: 250 g ai/ha, scale 0 to 100 (0 no effect, 100 complete control)
In short: as §2

[3] = scale 0 to 100 (0 no effect, 100 complete control), read-out: Barnyardgrass plant response rating
[4] = scale of 0 to 100, 0 is no effect, 100 is complete control, read-out: Barnyardgrass plant response rating
[5] = visual rating after 12 to 14 days, scale 0 to 100 (0 no effect, 100 complete control), read-out: Plant response rating, Barnyardgrass
[6] = post-emergence, Postemergence, 0 to 100 scale, 0 no effect, 100 complete control, read-out: Plant response rating, Pigweed
[7] = pre-emergence, Preemergence, visual rating, 0 to 100 scale (0 no effect, 100 complete control), read-out: Pigweed plant response rating
[8] = pre-emergence, Preemergence, 0 to 100 scale, 0 no effect, 100 complete control, read-out: Pigweed plant response rating
[9] = post-emergence, Postemergence, 0 to 100 scale, 0 no effect, 100 complete control, read-out: Plant response rating, Crabgrass, Large
[10] = pre-emergence, Preemergence, visual rating, 0 to 100 scale (0 no effect, 100 complete control), read-out: Crabgrass, Large plant response rating
[11] = pre-emergence, Preemergence, 0 to 100 scale, 0 no effect, 100 complete control, read-out: Crabgrass, Large plant response rating
[12] = scale 0 to 100 (0 no effect, 100 complete control), read-out: Rice plant response rating
[13] = scale of 0 to 100, 0 is no effect, 100 is complete control, read-out: Rice plant response rating
[14] = visual rating after 12 to 14 days, scale 0 to 100 (0 no effect, 100 complete control), read-out: Plant response rating, Rice
[15] = Amaranthus retroflexus, pre-emergence, visual, 12 to 14 days, read-out: Plant response rating, Pigweed
[16] = scale 0 (no effect) to 100 (complete control), visual, 12 to 14 days

| SMILES | pest or weed control at 62 g/ha (barnyardgrass; [3]) | pest or weed control at 125 g/ha (barnyardgrass; [4]) | pest or weed control at 500 g/ha (barnyardgrass; [5]) | pest or weed control at 500 g/ha (redroot pigweed; [6]) | pest or weed control at 2000 g/ha (redroot pigweed; [6]) | pest or weed control at 500 g/ha (redroot pigweed; [7]) | pest or weed control at 2000 g/ha (redroot pigweed; [8]) | pest or weed control at 500 g/ha (large crabgrass; [9]) | pest or weed control at 2000 g/ha (large crabgrass; [9]) | pest or weed control at 500 g/ha (large crabgrass; [10]) | pest or weed control at 2000 g/ha (large crabgrass; [11]) | plant injury at 62 g/ha (rice [1]; [12]) | plant injury at 125 g/ha (rice [1]; [13]) | plant injury at 500 g/ha (rice [1]; [14]) | Plant response rating (0 = no effect, 100 = complete control), Pigweed (pigweed) | pest or weed control at 250 g/ha (pigweed; [15]) | Pigweed plant response rating (pigweed) | Plant response rating (0 = no effect, 100 = complete control), Lambsquarters (lambsquarters) | pest or weed control at 250 g/ha (lambsquarters; visual, 12 to 14 days) | Lambsquarters plant response rating (lambsquarters) | other results |
| --- | --- | --- | --- | --- | --- | --- | --- | --- | --- | --- | --- | --- | --- | --- | --- | --- | --- | --- | --- | --- | --- |
| CCNC(=O)c1ccc(F)c(NC(=O)c2cc(C(C)(C)C)nn2CC)c1 [Compound 2, 3-(1,1-dimethylethyl)-1-ethyl-N-[5-[(ethylamino)carbonyl]-2-fluorophenyl]-1H-pyrazole-5-carboxamide] | 15% | 75% | 90% | 100% | 100% | 100% | 100% | 85% | 100% | 100% | 100% | 50% | 50% | 85% | 95 | 95% | 100 | 100 | 100% | 100 | pest or weed control at 250 g/ha (barnyardgrass; [5]): 75%; plant injury at 250 g/ha (rice [1]; [14]): 65%; pest or weed control at 125 g/ha (lambsquarters; scale 0-100): 100%; Rice plant response rating (rice [2]): 90; Plant response rating (0 = no effect, 100 = complete control), Goosegrass (goosegrass): 90; pest or weed control at 125 g/ha (goosegrass; scale 0-100): 95%; pest or weed control at 250 g/ha (goosegrass; visual, 12 to 14 days): 95%; Goosegrass plant response rating (goosegrass): 100; Plant response rating (0 = no effect, 100 = complete control), Foxtail, Giant (giant foxtail): 80; Foxtail, Giant plant response rating (giant foxtail): 100; pest or weed control at 125 g/ha (giant foxtail; scale 0-100): 100%; pest or weed control at 250 g/ha (giant foxtail; visual, 12 to 14 days): 100% |
| CCn1nc(C(C)(C)C)cc1C(=O)Nc1cccc2c1CN(C)C2=O [Compound 55, N-(2,3-dihydro-2-methyl-1-oxo-1H-isoindol-4-yl)-3-(1,1-dimethylethyl)-1-ethyl-1H-pyrazole-5-carboxamide] | 0% | 0% | 75% | 90% | 100% | 100% | 100% | 25% | 100% | 75% | 100% | 0% | 0% | 60% | 95 | 95% | 95 | 80 | 100% | 100 | pest or weed control at 250 g/ha (barnyardgrass; [4]): 25%; plant injury at 250 g/ha (rice [1]; [13]): 15%; pest or weed control at 125 g/ha (pigweed; Amaranthus retroflexus, pre-emergence, 125 g ai/ha, scale 0 (no effect) to 100 (complete control), visual, 12 to 14 days, read-out: Plant response rating, Pigweed): 95%; pest or weed control at 125 g/ha (lambsquarters; [16]): 95%; plant injury at 125 g/ha (rice [2]; Oryza sativa, pre-emergence, 336 h, preemergence, 125 g ai/ha, 0 to 100 scale, 0 is no effect, 100 is complete control, read-out: Plant response rating, Rice): 50%; Rice plant response rating (rice [2]): 70; Plant response rating (0 = no effect, 100 = complete control), Goosegrass (goosegrass): 0; pest or weed control at 125 g/ha (goosegrass; [16]): 50%; pest or weed control at 250 g/ha (goosegrass; visual, 12 to 14 days): 75%; Goosegrass plant response rating (goosegrass): 95; Plant response rating (0 = no effect, 100 = complete control), Foxtail, Giant (giant foxtail): 0; Foxtail, Giant plant response rating (giant foxtail): 100; pest or weed control at 125 g/ha (giant foxtail; [16]): 50%; pest or weed control at 250 g/ha (giant foxtail; visual, 12 to 14 days): 75% |
